Data taken from ChEMBL document CHEMBL1759924, “Natural products-based insecticidal agents 9. Design, semisynthesis and insecticidal activity of 28-acyloxy derivatives of toosendanin against Mythimna separata Walker in vivo” (2011).
Active and inactive are the calls of the source. No cut-off for these calls is given here.

Columns and labels:
Mythimna separata [1] = assay: Insecticidal activity against Mythimna separata Walker assessed as mortality at 1 mg/mL by leaf dipping method; format: functional, organism-based; conditions: TDE = time-dependent effect
Mythimna separata [2] = assay: Insecticidal activity against Mythimna separata Walker assessed as mortality rate at 1 mg/mL after 10 days by leaf dipping method; format: functional
Mythimna separata [3] = assay: Insecticidal activity against Mythimna separata Walker assessed as mortality rate at 1 mg/mL after 20 days by leaf dipping method; format: functional
Mythimna separata [4] = assay: Insecticidal activity against Mythimna separata Walker assessed as mortality rate at 1 mg/mL after 35 days by leaf dipping method; format: functional
Mythimna separata [5] = assay: Insecticidal activity against Mythimna separata assessed as malformed moths with imperfect wings at day 27; format: functional, organism-based
Mythimna separata [6] = assay: Insecticidal activity against Mythimna separata assessed as slim and wrinkled body during larval period upto 48 hrs; format: functional, organism-based
Mythimna separata [7] = assay: Insecticidal activity against Mythimna separata larvae assessed as malformed pupae during pupation period at day 19; format: functional, organism-based

`CC(=O)O[C@@H]1C[C@H](O)[C@@]23CO[C@H](OC(=O)c4cccc(Cl)c4)[C@]1(C)[C@@H]2C[C@@H](O)[C@]1(C)[C@@H]3C(=O)[C@H](OC(C)=O)[C@@]2(C)C(c3ccoc3)C[C@H]3O[C@@]312` (single isomer, unassigned) was tested, and the Activity (Mythimna separata [1]) was “tde”, the Activity (Mythimna separata [2]) was 27.6% and the Activity (Mythimna separata [3]) was 34.6%. For the same molecule, the Activity (Mythimna separata [4]) was 46.2% and the Activity (Mythimna separata [5]) was “Active”.
For `CC(=O)O[C@@H]1C[C@H](O)[C@@]23CO[C@@H](O)[C@]1(C)[C@@H]2C[C@@H](O)[C@]1(C)[C@@H]3C(=O)[C@H](OC(C)=O)[C@@]2(C)[C@H](c3ccoc3)C[C@H]3O[C@]321` [TOOSENDANIN], the Activity (Mythimna separata [1]) was “tde”, the Activity (Mythimna separata [2]) was 24.1% and the Activity (Mythimna separata [3]) was 30.8%. It also gave an Activity (Mythimna separata [4]) of 50%.
`COc1ccc(C(=O)O[C@H]2OC[C@@]34[C@H]5C(=O)[C@H](OC(C)=O)[C@@]6(C)C(c7ccoc7)C[C@H]7O[C@]76[C@]5(C)[C@H](O)C[C@H]3[C@]2(C)[C@H](OC(C)=O)C[C@@H]4O)cc1` (single isomer, unassigned) was tested, and the Activity (Mythimna separata [1]) was “tde”, the Activity (Mythimna separata [2]) was 20.7% and the Activity (Mythimna separata [3]) was 26.9%. For the same molecule, the Activity (Mythimna separata [4]) was 42.3%.
For `CC(=O)O[C@@H]1C[C@H](O)[C@@]23CO[C@H](OC(=O)c4ccc(Cl)cc4)[C@]1(C)[C@@H]2C[C@@H](O)[C@]1(C)[C@@H]3C(=O)[C@H](OC(C)=O)[C@@]2(C)C(c3ccoc3)C[C@H]3O[C@@]312` (single isomer, unassigned), the Activity (Mythimna separata [1]) was “tde”, the Activity (Mythimna separata [2]) was 20.7% and the Activity (Mythimna separata [3]) was 26.9%. For the same molecule, the Activity (Mythimna separata [4]) was 50%, the Activity (Mythimna separata [6]) was “Active” and the Activity (Mythimna separata [7]) was “Active”.
In the case of `CCCC(=O)O[C@H]1OC[C@@]23[C@H]4C(=O)[C@H](OC(C)=O)[C@@]5(C)C(c6ccoc6)C[C@H]6O[C@]65[C@]4(C)[C@H](O)C[C@H]2[C@]1(C)[C@H](OC(C)=O)C[C@@H]3O` (single isomer, unassigned), the Activity (Mythimna separata [1]) is reported as “tde”, the Activity (Mythimna separata [2]) is reported as 31% and the Activity (Mythimna separata [3]) is reported as 42.3%. For the same molecule, the Activity (Mythimna separata [4]) was 73.1% and the Activity (Mythimna separata [7]) was “Active”.
With `CC(=O)O[C@@H]1C[C@H](O)[C@@]23CO[C@H](OC(=O)CCc4ccccc4)[C@]1(C)[C@@H]2C[C@@H](O)[C@]1(C)[C@@H]3C(=O)[C@H](OC(C)=O)[C@@]2(C)C(c3ccoc3)C[C@H]3O[C@@]312` (single isomer, unassigned) the Activity (Mythimna separata [1]) was “tde”, the Activity (Mythimna separata [2]) was 20.7% and the Activity (Mythimna separata [3]) was 30.8%. The Activity (Mythimna separata [4]) was 53.9% and the Activity (Mythimna separata [5]) was “Active”.
For `CC(=O)O[C@@H]1C[C@H](O)[C@@]23CO[C@H](OC(=O)c4ccccc4Cl)[C@]1(C)[C@@H]2C[C@@H](O)[C@]1(C)[C@@H]3C(=O)[C@H](OC(C)=O)[C@@]2(C)C(c3ccoc3)C[C@H]3O[C@@]312` (single isomer, unassigned), the Activity (Mythimna separata [1]) was “tde”, the Activity (Mythimna separata [2]) was 20.7% and the Activity (Mythimna separata [3]) was 23.1%. The Activity (Mythimna separata [4]) was 38.5%, the Activity (Mythimna separata [6]) was “Active” and the Activity (Mythimna separata [5]) was “Active”.
`CCC(=O)O[C@H]1OC[C@@]23[C@H]4C(=O)[C@H](OC(C)=O)[C@@]5(C)C(c6ccoc6)C[C@H]6O[C@]65[C@]4(C)[C@H](O)C[C@H]2[C@]1(C)[C@H](OC(C)=O)C[C@@H]3O` (single isomer, unassigned) was tested, and the Activity (Mythimna separata [1]) was “tde”, the Activity (Mythimna separata [2]) was 24.1% and the Activity (Mythimna separata [3]) was 30.8%. The Activity (Mythimna separata [4]) was 53.9% and the Activity (Mythimna separata [6]) was “Active”.
`CC(=O)O[C@H]1OC[C@@]23[C@H]4C(=O)[C@H](OC(C)=O)[C@@]5(C)C(c6ccoc6)C[C@H]6O[C@]65[C@]4(C)[C@H](O)C[C@H]2[C@]1(C)[C@H](OC(C)=O)C[C@@H]3O` (single isomer, unassigned) was tested, and the Activity (Mythimna separata [1]) was “tde”, the Activity (Mythimna separata [2]) was 24.1% and the Activity (Mythimna separata [3]) was 26.9%. The Activity (Mythimna separata [4]) was 50%, the Activity (Mythimna separata [6]) was “Active” and the Activity (Mythimna separata [7]) was “Active”.
`CC(=O)O[C@@H]1C[C@H](O)[C@@]23CO[C@H](OC(=O)c4ccccc4)[C@]1(C)[C@@H]2C[C@@H](O)[C@]1(C)[C@@H]3C(=O)[C@H](OC(C)=O)[C@@]2(C)C(c3ccoc3)C[C@H]3O[C@@]312` (single isomer, unassigned) was tested, and the Activity (Mythimna separata [1]) was “tde”, the Activity (Mythimna separata [2]) was 20.7% and the Activity (Mythimna separata [3]) was 23.1%. For the same molecule, the Activity (Mythimna separata [4]) was 46.2% and the Activity (Mythimna separata [5]) was “Active”.
With `CC(=O)O[C@@H]1C[C@H](O)[C@@]23CO[C@H](OC(=O)Cc4ccccc4)[C@]1(C)[C@@H]2C[C@@H](O)[C@]1(C)[C@@H]3C(=O)[C@H](OC(C)=O)[C@@]2(C)C(c3ccoc3)C[C@H]3O[C@@]312` (single isomer, unassigned) the Activity (Mythimna separata [1]) was “tde”, the Activity (Mythimna separata [2]) was 24.1% and the Activity (Mythimna separata [3]) was 26.9%. For the same molecule, the Activity (Mythimna separata [4]) was 42.3%.
In the case of `CC(=O)O[C@@H]1C[C@H](O)[C@@]23CO[C@H](OC(=O)c4ccc([N+](=O)[O-])cc4)[C@]1(C)[C@@H]2C[C@@H](O)[C@]1(C)[C@@H]3C(=O)[C@H](OC(C)=O)[C@@]2(C)C(c3ccoc3)C[C@H]3O[C@@]312` (single isomer, unassigned), the Activity (Mythimna separata [1]) is reported as “tde”, the Activity (Mythimna separata [2]) is reported as 24.2% and the Activity (Mythimna separata [3]) is reported as 26.9%. The Activity (Mythimna separata [4]) was 42.3% and the Activity (Mythimna separata [5]) was “Active”.
With `CC(=O)O[C@@H]1C[C@H](O)[C@@]23CO[C@H](OC(=O)/C=C/c4ccccc4)[C@]1(C)[C@@H]2C[C@@H](O)[C@]1(C)[C@@H]3C(=O)[C@H](OC(C)=O)[C@@]2(C)C(c3ccoc3)C[C@H]3O[C@@]312` (single isomer, unassigned) the Activity (Mythimna separata [1]) was “tde”, the Activity (Mythimna separata [2]) was 20.7% and the Activity (Mythimna separata [3]) was 38.5%. The Activity (Mythimna separata [4]) was 61.5% and the Activity (Mythimna separata [7]) was “Active”.
